According to PubChem BioAssay AID190 (DTP/NCI, 2004):
“And” between values parts separate entries of the source, which are not always exact repeats. Equal values may be shown once. Inconclusive results and toxic doses are left out. The calls were made as follows: active = survival T/C of 150% or more; inactive = T/C below 125% in these data.

System: AKR/Lw mice, AKR lymphoma ip, median survival T/C
Test: NCI In Vivo Anticancer Drug Screen. Data for tumor model Lymphoma AKR (Transplanted) (intraperitoneal) in AKR/Lw mice
Details: endpoint: median survival time, higher = longer survival
Protocol: The antitumor activity of compounds was measured in mice bearing transplantable tumors. Survival or tumor size were measured and the results are expressed as the measurement made in the treated group (T) divided by the measurement made in the vehicle treated control group (C). The tumor model used in this assay is Lymphoma AKR (Transplanted) (intraperitoneal) in AKR/Lw mice

[1] = dose: 6.2 mg/kg/injection, schedule: Q01DX009 (ip), vehicle: Klucel (hydroxypropylcellulose) (HPC)
[2] = dose: 12.5 mg/kg/injection, schedule: Q01DX009 (ip), vehicle: Klucel (hydroxypropylcellulose) (HPC)
[3] = dose: 25.0 mg/kg/injection, schedule: Q01DX001 (ip), vehicle: Klucel (hydroxypropylcellulose) (HPC)
[4] = dose: 25.0 mg/kg/injection, schedule: Q01DX001 (ip), vehicle: saline
[5] = dose: 25.0 mg/kg/injection, schedule: Q01DX009 (ip), vehicle: Klucel (hydroxypropylcellulose) (HPC)
[6] = dose: 25.0 mg/kg/injection, schedule: Q01DX009 (ip), vehicle: saline
[7] = dose: 25.0 mg/kg/injection, schedule: Q04DX003 (ip), vehicle: Klucel (hydroxypropylcellulose) (HPC)
[8] = dose: 50.0 mg/kg/injection, schedule: Q01DX001 (ip), vehicle: Klucel (hydroxypropylcellulose) (HPC)
[9] = dose: 50.0 mg/kg/injection, schedule: Q01DX001 (ip), vehicle: saline
[10] = dose: 50.0 mg/kg/injection, schedule: Q01DX009 (ip), vehicle: Klucel (hydroxypropylcellulose) (HPC)
[11] = dose: 50.0 mg/kg/injection, schedule: Q01DX009 (ip), vehicle: saline
[12] = dose: 50.0 mg/kg/injection, schedule: Q04DX003 (ip), vehicle: Klucel (hydroxypropylcellulose) (HPC)
[13] = dose: 75.0 mg/kg/injection, schedule: Q01DX001 (ip), vehicle: Klucel (hydroxypropylcellulose) (HPC)
[14] = dose: 100.0 mg/kg/injection, schedule: Q01DX009 (ip), vehicle: Klucel (hydroxypropylcellulose) (HPC)
[15] = dose: 100.0 mg/kg/injection, schedule: Q01DX009 (ip), vehicle: saline
[16] = dose: 100.0 mg/kg/injection, schedule: Q04DX003 (ip), vehicle: Klucel (hydroxypropylcellulose) (HPC)
[17] = dose: 100.0 mg/kg/injection, schedule: Q04DX003 (ip), vehicle: saline
[18] = dose: 200.0 mg/kg/injection, schedule: Q01DX001 (ip), vehicle: saline
[19] = dose: 200.0 mg/kg/injection, schedule: Q04DX003 (ip), vehicle: Klucel (hydroxypropylcellulose) (HPC)
[20] = dose: 200.0 mg/kg/injection, schedule: Q04DX003 (ip), vehicle: saline
[21] = dose: 400.0 mg/kg/injection, schedule: Q01DX001 (ip), vehicle: saline
[22] = dose: 100.0 mg/kg/injection, schedule: Q01DX001 (ip), vehicle: Klucel (hydroxypropylcellulose) (HPC)
[23] = dose: 100.0 mg/kg/injection, schedule: Q01DX001 (ip), vehicle: saline
[24] = dose: 150.0 mg/kg/injection, schedule: Q01DX001 (ip), vehicle: Klucel (hydroxypropylcellulose) (HPC)
[25] = dose: 200.0 mg/kg/injection, schedule: Q01DX001 (ip), vehicle: Klucel (hydroxypropylcellulose) (HPC)
[26] = dose: 400.0 mg/kg/injection, schedule: Q01DX001 (ip), vehicle: Klucel (hydroxypropylcellulose) (HPC)
[27] = dose: 400.0 mg/kg/injection, schedule: Q04DX003 (ip), vehicle: Klucel (hydroxypropylcellulose) (HPC)

Measured: T/C

COc1ccc2cc1Oc1ccc(cc1)C[C@H]1c3cc(c(OC)cc3CCN1C)Oc1c(OC)c(OC)cc3c1[C@H](C2)N(C)CC3
inactive: [1] 110 % of control | dose: 7.5 mg/kg/injection, schedule: Q01DX009 (ip), vehicle: saline 90 % of control | [2] 107 % of control and 113 % of control | dose: 12.5 mg/kg/injection, schedule: Q01DX009 (ip), vehicle: saline 111 % of control | [3] 94 % of control (2×) and 97 % of control | [4] 95 % of control | [5] 97 % of control and 100 % of control (2×) | [6] 94 % of control | [7] 87 % of control | dose: 25.0 mg/kg/injection, schedule: Q04DX003 (ip), vehicle: saline 88 % of control and 109 % of control | dose: 32.0 mg/kg/injection, schedule: Q04DX003 (ip), vehicle: water 100 % of control | [8] 94 % of control and 110 % of control | [9] 95 % of control | [10] 94 % of control and 107 % of control | [11] 94 % of control and 116 % of control | [12] 87 % of control | dose: 50.0 mg/kg/injection, schedule: Q04DX003 (ip), vehicle: saline 97 % of control and 111 % of control and 114 % of control | dose: 64.0 mg/kg/injection, schedule: Q04DX003 (ip), vehicle: water 96 % of control | [13] 94 % of control | [14] 100 % of control | [15] 100 % of control and 106 % of control | [16] 97 % of control | [17] 98 % of control and 100 % of control and 111 % of control | dose: 128.0 mg/kg/injection, schedule: Q04DX003 (ip), vehicle: water 107 % of control | [18] 87 % of control and 104 % of control and 111 % of control | dose: 200.0 mg/kg/injection, schedule: Q01DX009 (ip), vehicle: saline 88 % of control and 94 % of control | [19] 100 % of control | [20] 97 % of control | dose: 256.0 mg/kg/injection, schedule: Q04DX003 (ip), vehicle: water 100 % of control | [21] 93 % of control and 100 % of control (2×)

COC(=O)C1CC(=O)C2(C)CCc3c(ccc4cc(OC)ccc34)C12 (stereo not drawn)
inactive: dose: 100.0 mg/kg/injection, schedule: Q01DX001 (sc), vehicle: steriod suspending solution 109 % of control | dose: 200.0 mg/kg/injection, schedule: Q01DX001 (sc), vehicle: steriod suspending solution 104 % of control

CC(=O)NNC(=O)c1ccccn1
inactive: dose: 3.1 mg/kg/injection, schedule: Q04DX003 (ip), vehicle: Klucel (hydroxypropylcellulose) (HPC) 92 % of control | [1] 100 % of control | dose: 6.2 mg/kg/injection, schedule: Q04DX003 (ip), vehicle: Klucel (hydroxypropylcellulose) (HPC) 88 % of control and 102 % of control | [2] 112 % of control and 120 % of control | dose: 12.5 mg/kg/injection, schedule: Q04DX003 (ip), vehicle: Klucel (hydroxypropylcellulose) (HPC) 89 % of control and 96 % of control | [4] 97 % of control and 108 % of control | [5] 109 % of control and 114 % of control | [6] 87 % of control and 91 % of control | [7] 97 % of control and 105 % of control and 112 % of control | dose: 31.25 mg/kg/injection, schedule: Q01DX001 (ip), vehicle: Klucel (hydroxypropylcellulose) (HPC) 94 % of control | dose: 37.5 mg/kg/injection, schedule: Q01DX009 (ip), vehicle: saline 98 % of control | [8] 92 % of control | [9] 95 % of control and 107 % of control | [10] 120 % of control | [11] 101 % of control and 104 % of control | [12] 104 % of control and 109 % of control and 110 % of control | dose: 62.5 mg/kg/injection, schedule: Q01DX001 (ip), vehicle: Klucel (hydroxypropylcellulose) (HPC) 94 % of control | dose: 75.0 mg/kg/injection, schedule: Q01DX009 (ip), vehicle: saline 96 % of control | [22] 114 % of control | [23] 102 % of control and 115 % of control and 116 % of control | [14] 123 % of control | [15] 107 % of control | dose: 100.0 mg/kg/injection, schedule: Q04DX003 (ip), vehicle: other 117 % of control and 123 % of control | [17] 116 % of control | [24] 94 % of control | dose: 150.0 mg/kg/injection, schedule: Q01DX009 (ip), vehicle: saline 105 % of control | [25] 95 % of control | [18] 97 % of control and 107 % of control | [19] 87 % of control and 94 % of control | dose: 200.0 mg/kg/injection, schedule: Q04DX003 (ip), vehicle: other 107 % of control | [20] 116 % of control | dose: 250.0 mg/kg/injection, schedule: Q01DX001 (ip), vehicle: Klucel (hydroxypropylcellulose) (HPC) 107 % of control | [26] 100 % of control

CCOC(=O)c1ccc(NCC(C)(C)[N+](=O)[O-])cc1
inactive: [23] 88 % of control | [21] 88 % of control

CN(C)C(C)(C)CNc1ccc(C(=O)O)cc1
inactive: [4] 88 % of control | [9] 91 % of control and 95 % of control | [23] 97 % of control and 91 % of control

CCOC(=O)N(CC)c1ccccc1
inactive: [22] 109 % of control | [16] 113 % of control | [25] 111 % of control | [19] 94 % of control | [26] 100 % of control | [27] 98 % of control

COc1ccc(CCN2C(=O)CSC2=S)cc1OC
inactive: [22] 100 % of control | [26] 100 % of control

COc1ccc2c3c(ccc2c1)C(=O)C(C)(C#N)CC3 (stereo not drawn)
inactive: dose: 37.5 mg/kg/injection, schedule: Q01DX001 (ip), vehicle: Klucel (hydroxypropylcellulose) (HPC) 92 % of control | [13] 94 % of control | [24] 100 % of control | dose: 300.0 mg/kg/injection, schedule: Q01DX001 (ip), vehicle: Klucel (hydroxypropylcellulose) (HPC) 107 % of control

c1cc2cc3c(cc2cc1CC1NCCc2cc4c(cc21)OCO4)OCO3 (stereo not drawn)
inactive: [22] 94 % of control | [16] 96 % of control | [25] 105 % of control | [26] 94 % of control

CCOC(=O)CCCl
inactive: [25] 111 % of control | [26] 97 % of control

c1ccc(C[N+](Cc2ccccc2)=C2CCCCC2)cc1
inactive: [23] 111 % of control | [18] 114 % of control

C/C=C(/Cl)c1c(C)cc(C)c(CC(=O)O)c1C
inactive: [25] 106 % of control | [26] 109 % of control

ClC1=C(Cl)C2(Cl)C3COCC3C1(Cl)C2(Cl)Cl (stereo not drawn)
inactive: [22] 100 % of control | [25] 93 % of control | [26] 91 % of control

O=C(/C=C/c1cccc([N+](=O)[O-])c1)NCCBr
inactive: [22] 102 % of control | [25] 104 % of control | [26] 86 % of control

COc1ccc(Br)cc1/C=N\NS(=O)(=O)c1ccc(C)cc1
inactive: [22] 106 % of control | [16] 106 % of control | [25] 100 % of control | [19] 86 % of control | [26] 100 % of control | [27] 86 % of control

O=C(O)O
inactive: [23] 86 % of control | [18] 117 % of control | [21] 95 % of control

O=CN(c1ccccc1)c1ccccc1
inactive: [3] 111 % of control | [8] 105 % of control | [22] 97 % of control | dose: 100.0 mg/kg/injection, schedule: Q01DX001 (ip), vehicle: other 120 % of control | dose: 200.0 mg/kg/injection, schedule: Q01DX001 (ip), vehicle: other 118 % of control | dose: 400.0 mg/kg/injection, schedule: Q01DX001 (ip), vehicle: other 100 % of control
